Assay results published in patent US20110046056A1, “APOA-1 PEPTIDE MIMETICS” (priority 2007, published 2011).
pEC50: −log10 of the molar value. *1 amine or outer side, *2 acyl side, *3 side chain or, on linkers, in order; H or OH if unused. Where a SMILES comes first, the peptide text is derived from it. [ ]: non-standard residue; d: D form. Leu(5,5,5,5',5',5'-F6) = N[C@@H](CC(C(F)(F)F)C(F)(F)F)C(=O)O; Gly(oct-7-en-1-yl) = C=CCCCCCC[C@H](N)C(=O)O; dGly(6-heptenyl) = C=CCCCCC[C@@H](N)C(=O)O; Ala(5-hexenyl) = C=CCCCCC[C@H](N)C(=O)O; dNle(6-vinyl) = C=CCCCC[C@@H](N)C(=O)O; Gla = N[C@@H](CC(C(=O)O)C(=O)O)C(=O)O; Gly(octyl) = CCCCCCCC[C@H](N)C(=O)O; X6 = CCCCCCC[C@H](N[*:1])C(=O)[*:2]

Biological target: T1, ABCA1 cholesterol transporter protein (Mus musculus, UniProt P41233)
T1 construct: endogenous in cells
Assay: ABCA1-dependent cholesterol efflux from RAW mouse macrophage cells (in vitro RCT assay)
Format: cell-based
Settings: read-out: EC50 in the cholesterol efflux assay (RCT in vitro assay)
Excerpt: Peptides of the present invention were designed based on amphipathic properties and their abilities to solubilize phospholipids and promote cholesterol efflux. The most direct functional measurement of efficacy for the ApoA-1 peptide mimetic is its capacity to improve the efflux of cholesterol from the cell. The RAW and J774 cell lines are reliable mouse macrophage cell lines frequently used in the art for this purpose. […] The RAW cell line is preferred and recited in the description below.
In the present assay, the RAW cells are plated at 1.5×10^5 cells/200 μl/well/48-well plate in DMEM complete medium (with 10% FBS from INVITROGEN and 1% penicillin-streptomycin-glutamine from GIBCO) and ^3H-cholesterol at 5 μCi/ml. After 24 hours incubation in a moist 37° C. atmosphere with 5% CO2, the spent medium is removed, the cells are washed once with serum-free DMEM (0.1% fatty acid free bovine serum albumin replaces the FBS), and fresh serum-free medium (200 μl) is added to each well. After overnight incubation in the serum-free medium to allow the cellular cholesterol pools to equilibrate, the spent medium is removed, and fresh serum-free medium is added with/without CPT-cAMP (150 μM final). Eight-point serial titrations of the peptide/s being tested are added at this time (duplicate titrations in plain medium without cAMP and duplicate titrations in medium containing cAMP).
After 24 hours incubation in the various conditions, the medium is harvested from each well and 50 μl aliquots are counted. The cells are then lysed by adding 500 μl of HEPES/Triton lysis buffer to each well. The lysis is facilitated by freezing and thawing once. After thawing, the lysates are mixed well and 50 μl aliquots are counted.
The percent efflux of each peptide in each medium condition (±cAMP) is calculated by dividing the total counts in the medium by the sum of the total counts in the medium and lysate. The percent efflux seen with plain medium is subtracted from the percent efflux seen with the cAMP-stimulated efflux to yield the reported ABCA1-stimulated values. EC50 values are determined using PRISM software (Table 2).

T1 sequence (P41233 whole entry): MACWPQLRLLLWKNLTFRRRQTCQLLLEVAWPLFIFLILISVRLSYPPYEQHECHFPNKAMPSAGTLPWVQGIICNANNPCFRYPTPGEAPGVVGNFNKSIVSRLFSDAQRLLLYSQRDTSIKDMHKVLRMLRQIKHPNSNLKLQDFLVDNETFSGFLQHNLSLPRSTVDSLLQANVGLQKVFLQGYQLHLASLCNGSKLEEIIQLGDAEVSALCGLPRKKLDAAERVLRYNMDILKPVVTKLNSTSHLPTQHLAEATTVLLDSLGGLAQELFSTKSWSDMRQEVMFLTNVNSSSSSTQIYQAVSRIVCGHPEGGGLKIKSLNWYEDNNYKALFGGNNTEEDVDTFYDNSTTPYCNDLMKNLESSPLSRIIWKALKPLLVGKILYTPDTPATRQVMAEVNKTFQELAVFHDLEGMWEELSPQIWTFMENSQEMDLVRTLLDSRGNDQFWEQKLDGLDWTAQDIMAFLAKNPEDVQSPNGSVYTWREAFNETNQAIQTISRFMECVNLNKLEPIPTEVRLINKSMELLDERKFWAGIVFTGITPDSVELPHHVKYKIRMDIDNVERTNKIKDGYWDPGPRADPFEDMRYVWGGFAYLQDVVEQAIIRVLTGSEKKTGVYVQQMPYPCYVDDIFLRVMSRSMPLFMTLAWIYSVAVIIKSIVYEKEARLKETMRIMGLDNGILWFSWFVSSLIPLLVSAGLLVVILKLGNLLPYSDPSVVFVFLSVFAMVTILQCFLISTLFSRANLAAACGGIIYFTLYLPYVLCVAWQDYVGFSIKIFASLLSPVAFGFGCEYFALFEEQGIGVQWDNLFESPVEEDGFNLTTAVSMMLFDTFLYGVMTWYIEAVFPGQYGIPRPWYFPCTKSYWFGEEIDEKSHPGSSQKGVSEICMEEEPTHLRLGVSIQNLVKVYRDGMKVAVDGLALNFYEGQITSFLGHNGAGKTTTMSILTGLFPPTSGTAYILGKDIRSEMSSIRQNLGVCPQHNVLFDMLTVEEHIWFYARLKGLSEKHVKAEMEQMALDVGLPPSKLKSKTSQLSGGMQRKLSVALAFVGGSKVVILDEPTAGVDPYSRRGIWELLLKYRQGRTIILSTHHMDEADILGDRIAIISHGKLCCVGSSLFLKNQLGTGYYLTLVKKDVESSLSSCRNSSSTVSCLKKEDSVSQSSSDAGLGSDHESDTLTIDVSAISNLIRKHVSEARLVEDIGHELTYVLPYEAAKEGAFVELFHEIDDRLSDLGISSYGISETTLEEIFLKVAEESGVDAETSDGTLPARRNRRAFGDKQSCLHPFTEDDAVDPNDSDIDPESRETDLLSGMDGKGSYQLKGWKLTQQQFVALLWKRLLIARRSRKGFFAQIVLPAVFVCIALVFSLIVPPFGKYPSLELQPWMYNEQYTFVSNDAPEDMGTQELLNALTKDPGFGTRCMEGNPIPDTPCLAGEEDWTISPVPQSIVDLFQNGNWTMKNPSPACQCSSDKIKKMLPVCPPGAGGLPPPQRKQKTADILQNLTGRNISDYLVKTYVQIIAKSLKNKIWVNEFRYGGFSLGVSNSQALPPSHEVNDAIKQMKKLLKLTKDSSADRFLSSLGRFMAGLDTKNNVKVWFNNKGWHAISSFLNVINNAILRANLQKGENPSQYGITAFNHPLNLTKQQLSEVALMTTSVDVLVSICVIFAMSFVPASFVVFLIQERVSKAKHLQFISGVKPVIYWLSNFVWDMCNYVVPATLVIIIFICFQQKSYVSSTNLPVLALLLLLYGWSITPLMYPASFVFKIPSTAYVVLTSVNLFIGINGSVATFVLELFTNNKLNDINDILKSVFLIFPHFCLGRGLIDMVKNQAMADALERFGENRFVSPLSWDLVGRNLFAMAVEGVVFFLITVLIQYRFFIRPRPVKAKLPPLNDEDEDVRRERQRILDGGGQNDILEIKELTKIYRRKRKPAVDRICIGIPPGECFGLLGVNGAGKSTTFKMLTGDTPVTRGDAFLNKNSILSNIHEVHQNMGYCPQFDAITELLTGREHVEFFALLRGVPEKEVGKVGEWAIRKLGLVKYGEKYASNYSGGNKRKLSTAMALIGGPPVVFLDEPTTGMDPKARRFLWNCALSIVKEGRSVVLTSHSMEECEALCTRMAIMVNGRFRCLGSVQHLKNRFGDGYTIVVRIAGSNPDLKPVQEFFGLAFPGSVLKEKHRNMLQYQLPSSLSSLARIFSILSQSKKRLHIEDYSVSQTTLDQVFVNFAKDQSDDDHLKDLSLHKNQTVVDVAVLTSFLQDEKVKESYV

Row | Compound | pEC50
1 | C=CCCCC[C@@H](NC(=O)[C@H](CCC(=O)O)NC(=O)[C@H](CC(N)=O)NC(=O)[C@H](CC(C)C)NC(=O)[C@H](CCCCN)NC(=O)[C@H](CCC(=O)O)NC(=O)[C@H](CCCN=C(N)N)NC(=O)[C@H](Cc1ccccc1)NC(=O)[C@H](CCC(=O)O)NC(=O)[C@H](CC(=O)O)NC(=O)[C@H](CC(C)C)NC(=O)[C@@H](NC(=O)[C@@H]1CCCN1C(C)=O)C(C)C)C(=O)N[C@@H](CC(C)C)C(=O)N[C@@H](CCC(=O)O)C(=O)N[C@@H](C)C(=O)N[C@@H](CC(C)C)C(=O)N[C@@H](CCCCN)C(=O)N[C@@H](CCC(N)=O)C(=O)N[C@@H](CCCCN)C(=O)N[C@@H](CC(C)C)C(=O)N[C@@H](CCCCN)C(N)=O [SEQ ID NO 18, PVLDEFREKLNER6HLEALKQKLK] (Ac-PVLDEFREKLNE[dNle(6-vinyl)]LEALKQKLK-NH2) | 4.74
2 | C=CCCCCC[C@@H](NC(=O)[C@H](CCC(=O)O)NC(=O)[C@H](CC(N)=O)NC(=O)[C@H](CC(C)C)NC(=O)[C@H](CCCCN)NC(=O)[C@H](CCC(=O)O)NC(=O)[C@H](CCCN=C(N)N)NC(=O)[C@H](Cc1ccccc1)NC(=O)[C@H](CCC(=O)O)NC(=O)[C@H](CC(=O)O)NC(=O)[C@H](CC(C)C)NC(=O)[C@@H](NC(=O)[C@@H]1CCCN1C(C)=O)C(C)C)C(=O)N[C@@H](CC(C)C)C(=O)N[C@@H](CCC(=O)O)C(=O)N[C@@H](C)C(=O)N[C@@H](CC(C)C)C(=O)N[C@@H](CCCCN)C(=O)N[C@@H](CCC(N)=O)C(=O)N[C@@H](CCCCN)C(=O)N[C@@H](CC(C)C)C(=O)N[C@@H](CCCCN)C(N)=O [SEQ ID NO 21, PVLDEFREKLNER7HLEALKQKLK] (Ac-PVLDEFREKLNE[dGly(6-heptenyl)]LEALKQKLK-NH2) | 5.14
3 | C=CCCCCC[C@H](NC(=O)[C@H](CCC(=O)O)NC(=O)[C@H](CC(N)=O)NC(=O)[C@H](CC(C)C)NC(=O)[C@H](CCCCN)NC(=O)[C@H](CCC(=O)O)NC(=O)[C@H](CCCNC(=N)N)NC(=O)[C@H](Cc1ccccc1)NC(=O)[C@H](CCC(=O)O)NC(=O)[C@H](CC(=O)O)NC(=O)[C@H](CC(C)C)NC(=O)[C@@H](NC(=O)[C@@H]1CCCN1C(C)=O)C(C)C)C(=O)N[C@@H](CC(C)C)C(=O)N[C@@H](CCC(=O)O)C(=O)N[C@@H](C)C(=O)N[C@@H](CC(C)C)C(=O)N[C@@H](CCCCN)C(=O)N[C@@H](CCC(N)=O)C(=O)N[C@@H](CCCCN)C(=O)N[C@@H](CC(C)C)C(=O)N[C@@H](CCCCN)C(N)=O [SEQ ID NO 29, PVLDEFREKLNES7HLEALKQKLK] (Ac-PVLDEFREKLNE[Ala(5-hexenyl)]LEALKQKLK-NH2) | 5.70
4 | C=CCCCCCC[C@H](NC(=O)[C@H](CCC(=O)O)NC(=O)[C@H](CC(N)=O)NC(=O)[C@H](CC(C)C)NC(=O)[C@H](CCCCN)NC(=O)[C@H](CCC(=O)O)NC(=O)[C@H](CCCN=C(N)N)NC(=O)[C@H](Cc1ccccc1)NC(=O)[C@H](CCC(=O)O)NC(=O)[C@H](CC(=O)O)NC(=O)[C@H](CC(C)C)NC(=O)[C@@H](NC(=O)[C@@H]1CCCN1C(C)=O)C(C)C)C(=O)N[C@@H](CC(C)C)C(=O)N[C@@H](CCC(=O)O)C(=O)N[C@@H](C)C(=O)N[C@@H](CC(C)C)C(=O)N[C@@H](CCCCN)C(=O)N[C@@H](CCC(N)=O)C(=O)N[C@@H](CCCCN)C(=O)N[C@@H](CC(C)C)C(=O)N[C@@H](CCCCN)C(N)=O [SEQ ID NO 32, PVLDEFREKLNES8HLEALKQKLK] (Ac-PVLDEFREKLNE[Gly(oct-7-en-1-yl)]LEALKQKLK-NH2) | 6.22
5 | CCCCCCC[C@H](NC(=O)[C@H](CCC(=O)O)NC(=O)[C@H](CC(N)=O)NC(=O)[C@H](CC(C)C)NC(=O)[C@H](CCCCN)NC(=O)[C@H](CCC(=O)O)NC(=O)[C@H](CCCN=C(N)N)NC(=O)[C@H](Cc1ccccc1)NC(=O)[C@H](CCC(=O)O)NC(=O)[C@H](CC(=O)O)NC(=O)[C@H](CC(C)C)NC(=O)[C@@H](NC(=O)[C@@H]1CCCN1C(C)=O)C(C)C)C(=O)N[C@@H](CC(C)C)C(=O)N[C@@H](CCC(=O)O)C(=O)N[C@@H](C)C(=O)N[C@@H](CC(C)C)C(=O)N[C@@H](CCCCN)C(=O)N[C@@H](CCC(N)=O)C(=O)N[C@@H](CCCCN)C(=O)N[C@@H](CC(C)C)C(=O)N[C@@H](CCCCN)C(N)=O [SEQ ID NO 34, PVLDEFREKLNES7H3LEALKQKLK] (Ac-PVLDEFREKLNE[X6]LEALKQKLK-NH2) | 6.22
6 | CCCCCCCC[C@H](NC(=O)[C@H](CCC(=O)O)NC(=O)[C@H](CC(N)=O)NC(=O)[C@H](CC(C)C)NC(=O)[C@H](CCCCN)NC(=O)[C@H](CCC(=O)O)NC(=O)[C@H](CCCN=C(N)N)NC(=O)[C@H](Cc1ccccc1)NC(=O)[C@H](CCC(=O)O)NC(=O)[C@H](CC(=O)O)NC(=O)[C@H](CC(C)C)NC(=O)[C@@H](NC(=O)[C@@H]1CCCN1C(C)=O)C(C)C)C(=O)N[C@@H](CC(C)C)C(=O)N[C@@H](CCC(=O)O)C(=O)N[C@@H](C)C(=O)N[C@@H](CC(C)C)C(=O)N[C@@H](CCCCN)C(=O)N[C@@H](CCC(N)=O)C(=O)N[C@@H](CCCCN)C(=O)N[C@@H](CC(C)C)C(=O)N[C@@H](CCCCN)C(N)=O [SEQ ID NO 35, PVLDEFREKLNES8H3LEALKQKLK] (Ac-PVLDEFREKLNE[Gly(octyl)]LEALKQKLK-NH2) | 6.52
7 | CC(=O)N1CCC[C@H]1C(=O)N[C@H](C(=O)N[C@@H](CC(C)C)C(=O)N[C@@H](CC(=O)O)C(=O)N[C@@H](CCC(=O)O)C(=O)N[C@@H](Cc1ccccc1)C(=O)N[C@@H](CCCNC(=N)N)C(=O)N[C@@H](CCC(=O)O)C(=O)N[C@@H](CCCCN)C(=O)N[C@@H](CC(C)C)C(=O)N[C@@H](CC(N)=O)C(=O)N[C@@H](CCC(=O)O)C(=O)N[C@@H](CC(C(F)(F)F)C(F)(F)F)C(=O)N[C@@H](CC(C)C)C(=O)N[C@@H](CCC(=O)O)C(=O)N[C@@H](C)C(=O)N[C@@H](CC(C)C)C(=O)N[C@@H](CCCCN)C(=O)N[C@@H](CCC(N)=O)C(=O)N[C@@H](CCCCN)C(=O)N[C@@H](CC(C)C)C(=O)N[C@@H](CCCCN)C(N)=O)C(C)C [SEQ ID NO 41, PVLDEFREKLNE-HFLEU-LEALKQKLK] (Ac-PVLDEFREKLNE[Leu(5,5,5,5',5',5'-F6)]LEALKQKLK-NH2; C-terminus assumed) | 5.96
8 | C=CCCCCC[C@H](NC(=O)[C@H](CCC(=O)O)NC(=O)[C@H](CC(N)=O)NC(=O)[C@H](CC(C)C)NC(=O)[C@H](CCCCN)NC(=O)[C@H](CCC(=O)O)NC(=O)[C@H](CCCN=C(N)N)NC(=O)[C@H](Cc1ccccc1)NC(=O)[C@H](CCC(=O)O)NC(=O)[C@H](CC(=O)O)NC(=O)[C@H](CC(C)C)NC(=O)[C@H](CCCCCC=C)NC(=O)[C@@H]1CCCN1C(C)=O)C(=O)N[C@@H](CC(C)C)C(=O)N[C@@H](CCC(=O)O)C(=O)N[C@@H](C)C(=O)N[C@@H](CC(C)C)C(=O)N[C@@H](CCCCN)C(=O)N[C@@H](CCC(N)=O)C(=O)N[C@@H](CCCCN)C(=O)N[C@@H](CC(C)C)C(=O)N[C@@H](CCCCN)C(N)=O [SEQ ID NO 42, PS7HLDEFREKLNES7HLEALKQKLK] (Ac-P[Ala(5-hexenyl)]LDEFREKLNE[Ala(5-hexenyl)]LEALKQKLK-NH2) | 6.52
9 | C=CCCCCC[C@H](NC(=O)[C@H](CCC(N)=O)NC(=O)[C@H](CCCCN)NC(=O)[C@H](CC(C)C)NC(=O)[C@H](C)NC(=O)[C@H](CCC(=O)O)NC(=O)[C@H](CC(C)C)NC(=O)[C@H](CCCCCC=C)NC(=O)[C@H](CCC(=O)O)NC(=O)[C@H](CC(N)=O)NC(=O)[C@H](CC(C)C)NC(=O)[C@H](CCCCN)NC(=O)[C@H](CCC(=O)O)NC(=O)[C@H](CCCN=C(N)N)NC(=O)[C@H](Cc1ccccc1)NC(=O)[C@H](CCC(=O)O)NC(=O)[C@H](CC(=O)O)NC(=O)[C@H](CC(C)C)NC(=O)[C@@H](NC(=O)[C@@H]1CCCN1C(C)=O)C(C)C)C(=O)N[C@@H](CC(C)C)C(=O)N[C@@H](CCCCN)C(N)=O [SEQ ID NO 44, PVLDEFREKLNES7HLEALKQS7HLK] (Ac-PVLDEFREKLNE[Ala(5-hexenyl)]LEALKQ[Ala(5-hexenyl)]LK-NH2) | 6.22
10 | C=CCCCCC[C@H](NC(=O)[C@H](CCC(=O)O)NC(=O)[C@H](CC(N)=O)NC(=O)[C@H](CC(C)C)NC(=O)[C@H](CCCCN)NC(=O)[C@H](CCC(=O)O)NC(=O)[C@H](CCCNC(=N)N)NC(=O)[C@H](Cc1ccccc1)NC(=O)[C@H](CCC(=O)O)NC(=O)[C@H](CC(=O)O)NC(=O)[C@H](CC(C)C)NC(=O)[C@@H](NC(=O)[C@@H]1CCCN1C(C)=O)C(C)C)C(=O)N[C@@H](CC(C)C)C(=O)N[C@@H](CC(C(=O)O)C(=O)O)C(=O)N[C@@H](C)C(=O)N[C@@H](CC(C)C)C(=O)N[C@@H](CCCCN)C(=O)N[C@@H](CCC(N)=O)C(=O)N[C@@H](CCCCN)C(=O)N[C@@H](CC(C)C)C(=O)N[C@@H](CCCCN)C(N)=O [SEQ ID NO 47, PVLDEFREKLNES7HL-GLA-ALKQKLK] (Ac-PVLDEFREKLNE[Ala(5-hexenyl)]L[Gla]ALKQKLK-NH2; C-terminus assumed) | 6.15
